Experiments:
Assay type in all cases: physicochemical
[1] = 1H NMR check of the stability of the salt in amorphous form samples; details: several samples of the amorphous form, CDCl3
Method: In addition, several samples of the amorphous form obtained were analyzed by ^1H NMR in order to check the stability of the salt (FIG. 2 is a ^1H NMR spectrum of the amorphous phase).
Proton nuclear magnetic resonance analyses were recorded in deuterated chloroform (CDCl3) in a Bruker Avance 400 Ultrashield NMR spectrometer, equipped with a z-gradient 5 mm BBO (Broadband Observe) probe with ATM and an automatic BACS-120 autosampler. Spectra were acquired solving 2-10 mg of sample in 0.6 mL of deuterated solvent.

[2] = Drying experiments of the amorphous phase for four hours at different temperatures, solid analyzed by PXRD; details: for Solid phase after drying: PXRD
Method: (§1) Approximately 20 mg of the non manipulated samples were prepared in standard sample holders using two foils of polyacetate.
(§2) Powder diffraction patterns were acquired on a D8 Advance Series 2Theta/Theta powder diffraction system using CuKα-radiation in transmission geometry (Wavelength: 1.54060 Å). The system was equipped with a VANTEC-1 single photon counting PSD, a Germanium monochromator, a ninety positions auto changer sample stage, fixed divergence slits and radial soller. Programs used: Data collection with DIFFRAC plus XRD Commander V.2.5.1 and evaluation with EVA V.12.0.
In order to test the stability of the amorphous phase and to investigate its stability, different portions of the amorphous phase were dried for four hours at different temperatures (table 5). Once the samples were dried the solid was analyzed by PXRD.

[3] = Drying experiments of the amorphous phase under vacuum (5-7 mbar) at different temperatures and times, solid analyzed by PXRD; details: for Solid phase after drying under vacuum: PXRD
Method: as §1, §2
In a second experiment, different portions of the amorphous phase were dried under vacuum conditions (5-7 mbar) at room temperature, 40° C. and 60° C. for different times (4, 8, 16 and 24 hours; table 6). Once the samples were dried, the solid was analyzed by PXRD. […] In the experiments performed at 40° C. the amorphous phase began to crystallize after 16 hours. In the experiments performed at 60° C. the amorphous phase began to crystallize after 8 hours and phase I could be clearly identified after 16 hours.

SMILES: Cc1cc(OCCN2CCOCC2)nn1-c1ccc2ccccc2c1.Cl [amorphous phase, 4-[2-[[5-methyl-1-(2-naphthalenyl)-1H-pyrazol-3-yl]oxy]ethyl]morpholine hydrochloride]
- Stability of the salt by 1H NMR [1]: no signs of the lost of HCl or decomposition of the samples could be observed
- Solid phase after drying ([2]; Sample 1: dried four hours at rt): amorphous
- Solid phase after drying ([2]; Sample 2: dried four hours at 40 °C): amorphous
- Solid phase after drying ([2]; Sample 3: dried four hours at 50 °C): amorphous
- Solid phase after drying ([2]; Sample 4: dried four hours at 60 °C): amorphous
- Solid phase after drying ([2]; Sample 5: dried four hours at 80 °C): amorphous + crystalline
- Solid phase after drying ([2]; Sample 6: dried four hours at 90 °C): amorphous + crystalline
- Solid phase after drying ([2]; Sample 7: dried four hours at 100 °C): phase I + crystalline
- Solid phase after drying ([2]; Sample 8: dried four hours at 110 °C): phase I
- Solid phase after drying ([2]; Sample 9: dried four hours at 120 °C): phase I
- Stability of the amorphous phase on drying ([2]; four hours at temperature higher than 100° C.): transformed clearly to phase I
- Stability of the amorphous phase on drying ([2]; temperatures over 60° C., four hours): transformed slightly to a crystalline phase, not clearly identified
- Stability of the amorphous phase on drying ([2]; temperatures up to 60° C. for four hours): amorphous phase was recovered
- Solid phase after drying under vacuum ([3]; Sample 10: vacuum 5-7 mbar, 23° C., 4 hours): amorphous
- Solid phase after drying under vacuum ([3]; Sample 11: vacuum 5-7 mbar, 23° C., 8 hours): amorphous
- Solid phase after drying under vacuum ([3]; Sample 12: vacuum 5-7 mbar, 23° C., 16 hours): amorphous
- Solid phase after drying under vacuum ([3]; Sample 13: vacuum 5-7 mbar, 23° C., 24 hours): amorphous
- Solid phase after drying under vacuum ([3]; Sample 14: vacuum 5-7 mbar, 40° C., 4 hours): amorphous
- Solid phase after drying under vacuum ([3]; Sample 15: vacuum 5-7 mbar, 40° C., 8 hours): amorphous
- Solid phase after drying under vacuum ([3]; Sample 16: vacuum 5-7 mbar, 40° C., 16 hours): amorphous + phase I
- Solid phase after drying under vacuum ([3]; Sample 17: vacuum 5-7 mbar, 40° C., 24 hours): amorphous + phase I
- Solid phase after drying under vacuum ([3]; Sample 18: vacuum 5-7 mbar, 60° C., 4 hours): amorphous
- Solid phase after drying under vacuum ([3]; Sample 19: vacuum 5-7 mbar, 60° C., 8 hours): amorphous + phase I
- Solid phase after drying under vacuum ([3]; Sample 20: vacuum 5-7 mbar, 60° C., 16 hours): phase I
- Solid phase after drying under vacuum ([3]; Sample 21: vacuum 5-7 mbar, 60° C., 24 hours): phase I
- Time after which the amorphous phase began to crystallize ([3]; vacuum 5-7 mbar, 40° C.): 16 h
- Time after which phase I could be clearly identified ([3]; vacuum 5-7 mbar, 60° C.): 16 h
- Time after which the amorphous phase began to crystallize ([3]; vacuum 5-7 mbar, 60° C.): 8 h
- Stability of the amorphous phase on drying under vacuum ([3]; vacuum 5-7 mbar, room temperature, up to 24 hours): did not change after drying

From US9428462B2, “4-[-2-[[5-methyl-1-(2-naphthalenyl)-1H-pyrazol-3-yl]oxy]ethyl]morpholine hydrochloride amorphous solid forms” (priority 2010, dated 2016)
